Tested on: tumor cell lines
Assay: Cytotoxicity (in vitro)
Type: cell-based
Conditions: range of GI50 values, cell lines not named
Text: A program was initiated in the laboratory for the design and synthesis of new 4β-aryl amino substituted podophyllotoxin congeners with enhanced antitumour activity and/or activity against etoposide resistant tumor cell lines. In these efforts new 4β-1″-[{2″-benzoyl substituted}anilino] podophyllotoxin derivatives have been synthesized and evaluated for their cytotoxicity and anticancer potency. […] The synthesis of these compounds has been carried out as described in the scheme using podophyllotoxin obtained from the resin. The cytotoxicity of 4a–4p values have been illustrated in the Table 1.

| SMILES | GI50 [nM] |
| --- | --- |
| COc1cc([C@@H]2c3cc4c(cc3[C@@H](Nc3ccc(Cl)cc3C(=O)c3ccccc3F)[C@@H]3COC(=O)[C@H]23)OCO4)cc(OC)c1OC [4i, 4β-1″-[2″-(2-Fluorobenzoyl)-4″-chloroanilino]-4-desoxypodophyllotoxin] | 140 to 300 |
| COc1cc([C@@H]2c3cc4c(cc3[C@@H](Nc3ccccc3C(=O)c3ccccc3)[C@@H]3COC(=O)[C@H]23)OCO4)cc(OC)c1OC [4a, 4β-1″-[2″-(Benzoyl)anilino]-4-desoxypodophyllotoxin] | 40 to 500 |
| COc1cc([C@@H]2c3cc4c(cc3[C@@H](Nc3cccc(C(=O)c5ccccc5)c3)[C@@H]3COC(=O)[C@H]23)OCO4)cc(OC)c1OC [4k, 4β-1″-[3″-(Benzoyl)anilino]-4-desoxypodophyllotoxin] | 100 to 1000 |
| COc1cc(C2c3cc4c(cc3C(Nc3ccc(Cl)cc3C(=O)c3ccccc3)C3COC(=O)C23)OCO4)cc(OC)c1O (stereo not drawn) [4h] | 14000 to 270000 |
| COc1cc([C@@H]2c3cc4c(cc3[C@@H](Nc3ccccc3C(=O)c3ccccc3)[C@@H]3COC(=O)[C@H]23)OCO4)cc(OC)c1O [4b, 4′-O-Demethyl-4β-1″-[2″-(benzoyl)anilino]-4-desoxypodophyllotoxin] | 15000 to 382000 |
| COc1cc(C2c3cc4c(cc3C(Nc3ccc(Cl)cc3C(=O)c3ccccc3Cl)C3COC(=O)C23)OCO4)cc(OC)c1O (stereo not drawn) [4d, 4′-O-Demethyl-4β-1″-[2″-(2-Chlorobenzoyl)-4″-chloroanilino]-4-desoxypodo-phyllotoxin] | 100 to 240 |
| COc1cc([C@@H]2c3cc4c(cc3[C@@H](Nc3ccc(Cl)cc3C(=O)c3ccccc3Cl)[C@@H]3COC(=O)[C@H]23)OCO4)cc(OC)c1OC [4c, 4β-1″-[2″-(2-Chlorobenzoyl)-4″-chloroanilino]-4-desoxypodophyllotoxin] | 59 to 876 |
| COc1cc(C2c3cc4c(cc3C(Nc3ccc(Cl)cc3C(=O)c3ccccc3)C3COC(=O)C23)OCO4)cc(OC)c1OC (stereo not drawn) [4g, 4β-1″-[2″-(Benzoyl)-4″-chloroanilino]-4-desoxypodophyllotoxin] | 70 to 1100 |
| COc1cc([C@@H]2c3cc4c(cc3[C@@H](Nc3cccc(C(=O)c5ccccc5)c3)[C@@H]3COC(=O)[C@H]23)OCO4)cc(OC)c1O [4l, 4′-O-Demethyl-4β-1″-[3″-(benzoyl)anilino]-4-desoxypodophyllotoxin] | 2000 to 16000 |
| COc1cc(C2c3cc4c(cc3C(Nc3ccc(Cl)cc3C(=O)c3ccccc3F)C3COC(=O)C23)OCO4)cc(OC)c1O (stereo not drawn) [4j, 4′-O-Demethyl-4β-1″-[2″-(2-Fluorobenzoyl)-4″-chloroanilino]-4-desoxypodo-phyllotoxin] | 4 to 100 |
| COc1cc(C2c3cc4c(cc3C(Nc3ccc(C(=O)c5ccccc5)cc3[N+](=O)[O-])C3COC(=O)C23)OCO4)cc(OC)c1O (stereo not drawn) [4n] | 10 to 240 |
| COc1cc([C@@H]2c3cc4c(cc3[C@@H](Nc3ccc([N+](=O)[O-])cc3C(=O)c3ccccc3)[C@@H]3COC(=O)[C@H]23)OCO4)cc(OC)c1O [4f] | 10 to 240 |

Reference: patent US7087641B2, “4β-1″-[(2″-substituted benzoyl) anilino]podophyllotoxin analogues useful as anticancer agents” (Council of Scientific & Industrial Research, priority 2002, dated 2006)
